The values below are quoted from earlier work in US8277782B2, “Topical oral care compositions comprising host response modulating agents” (The Procter & Gamble Company, priority 2000, dated 2012).

The structures appear in SMILES notation.

For the data set, the system named is alveolar bone. The note with it: non steroidal anti-inflammatory drugs, cyclo-oxygenase inhibitors; prior knowledge.

With `COc1ccc2c(c1)c(CC(=O)O)c(C)n2C(=O)c1ccc(Cl)cc1` [indomethacin], the “resorption of alveolar bone” value is “markedly reduce”. As to `CC(C(=O)O)c1ccc(-c2ccccc2)c(F)c1` (centres unmarked) [flurbiprofen], the “resorption of alveolar bone” value is “markedly reduce”.
